Assays:
cathepsin K [1] = target: T1, cathepsin K (Homo sapiens, UniProt P43235); assay: Agarose gel electrophoretic mobility shift assay of cathepsin K complexes; assay type: binding; settings: for effect on CSA/cathepsin K complex formation: 0.15% test polymer + 0.15% CSA, mobility shift; for affinity to cathepsin K relative to CSA: inferred from competition with 0.15% CSA
T1 construct: may comprise the native mature cathepsin K peptide
T1 sequence (P43235 115-329): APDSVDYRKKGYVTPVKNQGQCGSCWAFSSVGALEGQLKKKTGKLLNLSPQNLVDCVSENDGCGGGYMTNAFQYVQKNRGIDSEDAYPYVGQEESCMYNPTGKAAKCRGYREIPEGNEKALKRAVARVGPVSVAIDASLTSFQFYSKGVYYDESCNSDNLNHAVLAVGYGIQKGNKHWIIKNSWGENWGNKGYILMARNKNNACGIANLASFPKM
Description: The protein elution was recorded at OD280 nm and fractions were assayed for the hydrolysis of the cathepsin K substrate Z-Leu-Arg-MCA. […] The gel was dried and subsequently exposed to an X-ray film. […] Activity assays were performed using Z-LR-MCA as substrate in 100 mM sodium acetate buffer, pH 5.5, containing 2.5 mM EDTA/DTT and 0.5 nM recombinant human cathepsin K.
After exposure of the dried gel to an X-ray film, the signal of free cathepsin K was densitometrically determined and the amount of cathepsin K in the complex was calculated (cat Kcompley=cat Ktotal−cat Kfree).
Samples were subsequently mixed with non-reducing protein sample buffer, DNA dye, and melted agarose gel (melted at 37 C; 0.4% final concentration) at 37 C and embedded into a pre-made wells of a 0.5% agarose gel (running conditions: 25° C.; 55 V, 250 mA for 30 min). The gel was stained with toluidine blue for glycosaminoglycans and coomassie blue for protein.

cathepsin K/CSA complex = target: T2, cathepsin K/CSA complex (Homo sapiens, UniProt P43235); assay: Soluble type I collagen digestion by cathepsin K, analysed by SDS-PAGE; assay type: biochemical; settings: 28° C.; for collagenase activity of the complex formed with cathepsin K (type I collagen): 0.15% polymer, pH 5.5; for effect on type I collagen degradation by cathepsin K in the presence of CSA: 0.15% test substance + 0.15% CSA, 800 nM cathepsin K
T2 construct: may comprise the native mature cathepsin K peptide
T2 sequence (P43235 115-329): T1 sequence (P43235 115-329)
Description: Soluble type I bovine collagen was digested with 800 nM cathepsin K at 28° C., in 100 mM sodium acetate buffer pH 5.5, containing 2.5 mM EDTA/DTT. The reaction was stopped by the addition of 10 μM E-64 after various time periods and the samples were analyzed by 4-20% SDS-Page. […] The reaction was stopped by the addition of 10 μM E-64 after 8 h of incubation and the samples were analyzed by 4-20% SDS-polyacrylarnide electrophoresis.
Soluble type I bovine collagen was digested with 800 nM purified recombinant human cathepsin K and gelatin (soluble type I collagen was heated for 20 min at 70 C) with 0.5 nM cathepsin K at 28° C. and 37 C, in 100 mM sodium acetate buffer, pH 5.5, containing 2.5 mM EDTA/DTT. […] The reaction was stopped by the addition of 10 μM E-64 after 8 h of incubation and the samples were analyzed by 4-20% SDS-polyacrylamide electrophoresis.
The reactions were stopped by the addition of 10 μM E-64 and the samples were analyzed by 4-20% SDS-Page.
(§1) The elution buffer was 100 mM sodium acetate, pH 5.5, 1 mM EDTA/DTT. […] The reaction was stopped by the addition of 10 μM E-64 and the samples were analyzed by 4-20% SDS-Page.
as §1
The reaction was stopped by the addition of 10 μM E-64 and the samples were analyzed by 4-20% SDS-Page.
as §1, §1

cathepsin K [2] = target: T1, cathepsin K; assay: Superdex 200 gel filtration of cathepsin K preincubated with polymers; assay type: binding; settings: for elution volume (Ve) of the complex with cathepsin K: 30 μg cathepsin K preincubated with 0.15% polymer, Superdex 200, no NaCl; for effect on CSA/cathepsin K complex formation: 0.15% test substance + 0.15% CSA, gel filtration; for formation of a high molecular weight complex with cathepsin K: 0.15% test substance without CSA
Description: The elution buffer was 100 mM sodium acetate, pH 5.5, 1 mM EDTA/DTT.
The protein elution was recorded at OD280 nm and fractions were assayed for the hydrolysis of the cathepsin K substrate Z-Leu-Arg-MCA. […] The sample was loaded into the well of a 0.5% agarose gel and separated at room temperature at 55 V, 250 mA for 30 min in a running buffer containing 125 mM sodium acetate, pH 5.0,0.5 mM EDTA, 1 mM DTT, 40 mM NaCl, and 0.1% Chaps. The gel was dried and subsequently exposed to an X-ray film. The conditions for lane 3 were modified by the addition of 300 mM NaCl into the agarose gel and running buffer. […] Activity assays were performed using Z-LR-MCA as substrate in 100 mM sodium acetate buffer, pH 5.5, containing 2.5 mM EDTA/DTT and 0.5 nM recombinant human cathepsin K.
30 μg of cathepsin K were preincubated with elution buffer containing 0.15% low molecular fraction (V3 67.2 ml) of dermatan sulfate (DS) 0.15% 2-15 kD poly-D-Glu, or 0.15% 10 kD dextran sulfate for 20 min, and then applied to a Superdex 200 column. The elution buffer was 100 mM sodium acetate, pH 5.5, containing 1 mM EDTA/DTT.
as §1, §1, §1, §1

CSA/Cat K complex = target: T3, CSA/Cat K complex (Homo sapiens, UniProt P43235); assay: Fluoresceinamine-labeled CSA/Cat K complex formation fluorescence assay; assay type: binding; settings: 120 nM Cat K; 0.6 μg/ml FL-CSA; excitation 300 nm, emission 604 nm
T3 construct: may comprise the native mature cathepsin K peptide
T3 sequence (P43235 115-329): T1 sequence (P43235 115-329)
Description: Curve 1: 120 nM Cat K, then 0.6 μg/ml FL-CSA, and then 3 μg/ml dextran sulfate; Curve 2:,0.6 μg/ml FL-CSA, then 120 nM Cat K, and then 3 μg/ml dextran sulfate.
The pH was adjusted to pH 11 by addition of 5 M NaOH. […] The mixture was kept overnight at 4° C. for the coupling reaction. Subsequently, the mixture was concentrated to 1 ml using a SpeedVac concentrator and purified on a PD-10 column and eluded by 50 mM sodium acetate buffer, pH 5.5.
Cat K at a final concentration of 120 nM was added to 1 ml 100 mM sodium acetate buffer, pH 5.5 containing 2 mM EDTA/DTT using 2 milliliter cuvettes. The fluorescence signal for the protein alone is close to zero. […] After the addition of complex formation inhibitors, the fluorescence signal dropped to zero (FIG. 1). This assay allows the simple and convenient screening of compounds capable to interfere with complex formation.

[3] = Mobility shift assay of complex formation of proteases with CSA; assay type: binding; settings: 50 ng [125I]DCG-04 labeled protease; 0.1% CSA
Description: The gel was run at about 25° C. 55 V, 250 mA for 30 min, then dried and developed the radio signal on a film.

## poly-D-Glu
Cathepsin K [1]
  effect on CSA/cathepsin K complex formation: blocked
  affinity to cathepsin K relative to CSA: bind with a higher affinity to cathepsin K than CSA
Cathepsin K/CSA complex
  collagenase activity of the complex formed with cathepsin K (type I collagen): did not exhibit collagenase activity
  effect on type I collagen degradation by cathepsin K in the presence of CSA: prevents the degradation of type I collagen
Cathepsin K [2]
  elution volume (Ve) of the complex with cathepsin K: 14.2 mL
  effect on CSA/cathepsin K complex formation: prevented the formation of a cathepsin K/CSA complex

## CC(=O)N[C@H]1C(O)O[C@H](CO)[C@H](OS(=O)(=O)O)[C@@H]1O[C@@H]1OC(C(=O)O)=C[C@H](O)[C@H]1O (stereo partly drawn) [CSA disaccharide, chondroitin disaccharide-4S]
CSA/Cat K complex
  effect on fluorescence signal of FL-CSA/Cat K complex: did not show any effect
Cathepsin K/CSA complex
  effect on type I collagen degradation by cathepsin K in the presence of CSA: identical
Cathepsin K [2]
  effect on CSA/cathepsin K complex formation: did not interfere with complex formation
  formation of a high molecular weight complex with cathepsin K: unable to generate high-molecular complexes with cathepsin K

## dextran
CSA/Cat K complex
  effect on fluorescence signal of FL-CSA/Cat K complex: did not show any effect
Cathepsin K/CSA complex
  effect on type I collagen degradation by cathepsin K in the presence of CSA: identical
Cathepsin K [2]
  formation of a high molecular weight complex with cathepsin K: did not form a high molecular weight complex with cathepsin K

## dextran sulfate
Cathepsin K [1]
  effect on CSA/cathepsin K complex formation: blocked
  affinity to cathepsin K relative to CSA: bind with a higher affinity to cathepsin K than CSA
CSA/Cat K complex
  effect on fluorescence signal of FL-CSA/Cat K complex: decrease the fluorescence signal
Cathepsin K/CSA complex
  collagenase activity of the complex formed with cathepsin K (type I collagen): did not exhibit collagenase activity
  effect on type I collagen degradation by cathepsin K in the presence of CSA: prevents the degradation of type I collagen
Cathepsin K [2]
  elution volume (Ve) of the complex with cathepsin K: 13.5 mL
  effect on CSA/cathepsin K complex formation: prevented the formation of a cathepsin K/CSA complex

## poly-glutamic acid
CSA/Cat K complex
  effect on fluorescence signal of FL-CSA/Cat K complex: decrease the fluorescence signal

## heparan sulfate
CSA/Cat K complex
  effect on fluorescence signal of FL-CSA/Cat K complex: decrease the fluorescence signal

## [Cl-].[Na+] [NaCl]
Cathepsin K [1]; 300 mM NaCl in agarose gel and running buffer, 0.1% CSA
  effect on cathepsin K/CSA complex: the complex dissociated
Cathepsin K [2]; elution in the presence of 300 mM NaCl, cathepsin K/CSA mixture
  effect on cathepsin K complex formation: inhibits the formation of cathepsin K complexes

## poly-alanine
CSA/Cat K complex
  effect on fluorescence signal of FL-CSA/Cat K complex: did not show any effect

## poly-aspartic acid
CSA/Cat K complex
  effect on fluorescence signal of FL-CSA/Cat K complex: decrease the fluorescence signal

## poly-lysine
CSA/Cat K complex
  effect on fluorescence signal of FL-CSA/Cat K complex: did not show any effect

## dermatan sulfate
CSA/Cat K complex
  effect on fluorescence signal of FL-CSA/Cat K complex: decrease the fluorescence signal
Cathepsin K [2]
  elution volume (Ve) of the complex with cathepsin K: 14 mL

## Cat L: human cathepsin L, closely related cysteine protease
[3]
  complex formation with CSA: Only cathepsin K formed a stable complex

— patent US7799326B2, “Methods and compositions for cathespin k complex-mediated disorders” (Mount Sinai School of Medicine, priority 2001, dated 2010)
